Measured values as given in patent US9187472B2 (AbbVie Inc., priority 2012, dated 2015).
pIC50: −log10 of the molar value.

Columns and labels:
[1] = molecular target: NAMPT (human, recombinant, C-terminally His-tagged) (Homo sapiens, UniProt P43490); test: Time-Resolved Fluorescence Resonance Energy Transfer (TR-FRET) Binding Assay of NAMPT; details: without substrates; 6.8 nM NAMPT, 200 nM probe, 3 hours equilibration
Summary of the method: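 11-pt half-log compound series; final 6.8 nM NAMPT, 200 nM OG488 nicotinamide-competitive probe, 1 nM Tb-anti-His Ab, 2% DMSO, HEPES pH 7.5/NaCl/MgCl2/DTT/glycerol buffer. 3 h RT equilibration. Em520/Em495 ratio (Ex 337 nm), control-normalized, 4-parameter fit → IC50.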

PC3 cells = test: NAMPT Cell Proliferation Assay; type: cell-based; details: Homo sapiens, PC-3, 120 h, 5 days incubation, cell viability by Cell Titer Glo
Summary of the method: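 Proliferation of PC3 cells treated 5 days with a 10-fold compound series (top 10 μM) was quantified by Cell Titer Glo luminescence; IC50s were fitted from percent inhibition.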

NAMPT = NAMPT (Homo sapiens, UniProt P43490); test: TR-FRET Binding Assay of NAMPT with PRPP; details: with 200 μM PRPP and 2.5 mM ATP; 2 nM NAMPT, 2 nM probe, 16 hours equilibration
Summary of the method: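 TR-FRET probe-displacement binding with 2 nM NAMPT, 2 nM probe and 1 nM Tb-anti-His antibody, run in the presence of 200 μM PRPP and 2.5 mM ATP at 2% DMSO. Equilibrated 16 hours before reading so test compounds could undergo enzymatic modification.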

Sequence of NAMPT (P43490 whole entry): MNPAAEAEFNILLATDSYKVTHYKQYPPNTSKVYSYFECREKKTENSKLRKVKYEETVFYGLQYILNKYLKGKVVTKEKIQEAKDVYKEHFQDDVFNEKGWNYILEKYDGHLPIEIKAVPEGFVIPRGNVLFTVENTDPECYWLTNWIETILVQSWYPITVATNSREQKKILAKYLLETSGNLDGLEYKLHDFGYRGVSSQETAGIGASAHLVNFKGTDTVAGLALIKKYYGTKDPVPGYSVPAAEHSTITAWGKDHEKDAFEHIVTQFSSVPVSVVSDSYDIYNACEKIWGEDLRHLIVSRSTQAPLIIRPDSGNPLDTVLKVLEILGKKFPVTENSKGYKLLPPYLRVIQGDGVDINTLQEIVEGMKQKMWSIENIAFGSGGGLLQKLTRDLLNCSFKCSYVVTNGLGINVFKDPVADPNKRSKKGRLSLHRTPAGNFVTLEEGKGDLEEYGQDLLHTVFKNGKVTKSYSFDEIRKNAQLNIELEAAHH
Sequence of NAMPT (human, recombinant, C-terminally His-tagged) (P43490 whole entry): as above

| SMILES | pIC50 [1] | pIC50 (PC3 cells) | pIC50 (NAMPT) |
| --- | --- | --- | --- |
| N#Cc1ccc(C(=O)N2CCC(c3ccc(C(=O)NCc4ccn5ccnc5c4)cc3)CC2)cc1 [Example 520, 4-[1-(4-cyanobenzoyl)piperidin-4-yl]-N-(imidazo[1,2-a]pyridin-7-ylmethyl)benzamide] | 6.25 | 7.00 | 9.52 |
| N#Cc1cccc(C(=O)N2CCC(c3ccc(C(=O)NCc4ccn5ccnc5c4)cc3)CC2)c1 [Example 521, 4-[1-(3-cyanobenzoyl)piperidin-4-yl]-N-(imidazo[1,2-a]pyridin-7-ylmethyl)benzamide] | 6.38 | 7.03 | 9.53 |
| O=C(NCc1ccn2ccnc2c1)c1ccc(C2CCN(C(=O)c3cc(F)ccc3F)CC2)cc1 [Example 522, 4-[1-(2,5-difluorobenzoyl)piperidin-4-yl]-N-(imidazo[1,2-a]pyridin-7-ylmethyl)benzamide] | 7.24 | 8.17 | 9.70 |
| O=C(NCc1ccn2ccnc2c1)c1ccc(C2CCN(C(=O)c3cnccn3)CC2)cc1 [Example 523, N-(imidazo[1,2-a]pyridin-7-ylmethyl)-4-[1-(pyrazin-2-ylcarbonyl)piperidin-4-yl]benzamide] | 6.46 | 7.77 | 9.37 |
| Cc1ccsc1C(=O)N1CCC(c2ccc(C(=O)NCc3ccn4ccnc4c3)cc2)CC1 [Example 524, N-(imidazo[1,2-a]pyridin-7-ylmethyl)-4-{1-[(3-methylthiophen-2-yl)carbonyl]piperidin-4-yl}benzamide] | 7.61 | 8.61 | 9.77 |
| Cc1noc(C)c1C(=O)N1CCC(c2ccc(C(=O)NCc3ccn4ccnc4c3)cc2)CC1 [Example 525, 4-{1-[(3,5-dimethyl-1,2-oxazol-4-yl)carbonyl]piperidin-4-yl}-N-(imidazo[1,2-a]pyridin-7-ylmethyl)benzamide] | 7.06 | 8.17 | 9.67 |
| COc1cccc(C(=O)N2CCC(c3ccc(C(=O)NCc4ccn5ccnc5c4)cc3)CC2)c1 [Example 526, N-(imidazo[1,2-a]pyridin-7-ylmethyl)-4-[1-(3-methoxybenzoyl)piperidin-4-yl]benzamide] | 6.90 | 7.22 | 9.56 |
| O=C(NCc1ccn2ccnc2c1)c1ccc(C2CCN(C(=O)c3cccc(Cl)c3)CC2)cc1 [Example 527, 4-[1-(3-chlorobenzoyl)piperidin-4-yl]-N-(imidazo[1,2-a]pyridin-7-ylmethyl)benzamide] | 6.85 | 7.22 | 9.58 |
| COc1ccc(C(=O)N2CCC(c3ccc(C(=O)NCc4ccn5ccnc5c4)cc3)CC2)cc1 [Example 528, N-(imidazo[1,2-a]pyridin-7-ylmethyl)-4-[1-(4-methoxybenzoyl)piperidin-4-yl]benzamide] | 6.90 | 7.62 | 9.56 |
| O=C(NCc1ccn2ccnc2c1)c1ccc(C2CCN(C(=O)c3ccc(Cl)cc3)CC2)cc1 [Example 529, 4-[1-(4-chlorobenzoyl)piperidin-4-yl]-N-(imidazo[1,2-a]pyridin-7-ylmethyl)benzamide] | 6.61 | 6.64 | 9.55 |
| O=C(NCc1ccn2ccnc2c1)c1ccc(C2CCN(C(=O)c3cc(F)cc(F)c3)CC2)cc1 [Example 530, 4-[1-(3,5-difluorobenzoyl)piperidin-4-yl]-N-(imidazo[1,2-a]pyridin-7-ylmethyl)benzamide] | 6.42 | 7.09 | 9.10 |
| O=C(NCc1ccn2ccnc2c1)c1ccc(C2CCN(C(=O)C3CC3)CC2)cc1 [Example 531, 4-[1-(cyclopropylcarbonyl)piperidin-4-yl]-N-(imidazo[1,2-a]pyridin-7-ylmethyl)benzamide] | 6.48 | 7.28 | 9.60 |
| CCC(=O)N1CCC(c2ccc(C(=O)NCc3ccn4ccnc4c3)cc2)CC1 [Example 532, N-(imidazo[1,2-a]pyridin-7-ylmethyl)-4-(1-propanoylpiperidin-4-yl)benzamide] | 6.47 | 7.03 | 9.75 |
| Cn1cccc1C(=O)N1CCC(c2ccc(C(=O)NCc3ccn4ccnc4c3)cc2)CC1 [Example 533, N-(imidazo[1,2-a]pyridin-7-ylmethyl)-4-{1-[(1-methyl-1H-pyrrol-2-yl)carbonyl]piperidin-4-yl}benzamide] | 7.00 | 7.76 | 9.77 |
| CC(C)CC(=O)N1CCC(c2ccc(C(=O)NCc3ccn4ccnc4c3)cc2)CC1 [Example 534, N-(imidazo[1,2-a]pyridin-7-ylmethyl)-4-[1-(3-methylbutanoyl)piperidin-4-yl]benzamide] | 6.84 | 8.29 | 9.60 |
| O=C(NCc1ccn2ccnc2c1)c1ccc(C2CCN(C(=O)c3ccncc3)CC2)cc1 [Example 535, N-(imidazo[1,2-a]pyridin-7-ylmethyl)-4-[1-(pyridin-4-ylcarbonyl)piperidin-4-yl]benzamide] | 6.53 | 7.55 | 9.49 |
| CC(C)C(C)C(=O)N1CCC(c2ccc(C(=O)NCc3ccn4ccnc4c3)cc2)CC1 (stereo not drawn) [Example 536, 4-[1-(2,3-dimethylbutanoyl)piperidin-4-yl]-N-(imidazo[1,2-a]pyridin-7-ylmethyl)benzamide] | 7.11 | 8.52 | 9.69 |
| O=C(NCc1ccn2ccnc2c1)c1ccc(C2CCN(C(=O)c3cccnc3)CC2)cc1 [Example 537, N-(imidazo[1,2-a]pyridin-7-ylmethyl)-4-[1-(pyridin-3-ylcarbonyl)piperidin-4-yl]benzamide] | 6.34 | 7.37 | 9.64 |
| CC1(C(=O)N2CCC(c3ccc(C(=O)NCc4ccn5ccnc5c4)cc3)CC2)CC1 [Example 538, N-(imidazo[1,2-a]pyridin-7-ylmethyl)-4-{1-[(1-methylcyclopropyl)carbonyl]piperidin-4-yl}benzamide] | 6.56 | 8.48 | 9.29 |
| COc1ccccc1C(=O)N1CCC(c2ccc(C(=O)NCc3ccn4ccnc4c3)cc2)CC1 [Example 539, N-(imidazo[1,2-a]pyridin-7-ylmethyl)-4-[1-(2-methoxybenzoyl)piperidin-4-yl]benzamide] | 7.01 | 8.46 | 9.51 |
| O=C(NCc1ccn2ccnc2c1)c1ccc(C2CCN(C(=O)CC(F)(F)F)C2)s1 (stereo not drawn) [Example 540, N-(imidazo[1,2-a]pyridin-7-ylmethyl)-5-[1-(3,3,3-trifluoropropanoyl)pyrrolidin-3-yl]thiophene-2-carboxamide] | 6.58 | 7.13 | 9.52 |
| CC(C)C(=O)N1CCC(c2ccc(C(=O)NCc3ccn4ccnc4c3)s2)C1 (stereo not drawn) [Example 541, N-(imidazo[1,2-a]pyridin-7-ylmethyl)-5-[1-(2-methylpropanoyl)pyrrolidin-3-yl]thiophene-2-carboxamide] | 6.76 | 7.19 | 9.35 |
| O=C(NCc1ccn2ccnc2c1)c1ccc(C2CCN(C(=O)c3ccccc3)C2)s1 (stereo not drawn) [Example 542, 5-(1-benzoylpyrrolidin-3-yl)-N-(imidazo[1,2-a]pyridin-7-ylmethyl)thiophene-2-carboxamide] | 7.45 | 8.54 | 9.47 |
| CC(C)C(=O)N1CCC(c2ncc(C(=O)NCc3ccn4ccnc4c3)s2)CC1 [Example 543, N-(imidazo[1,2-a]pyridin-7-ylmethyl)-2-[1-(2-methylpropanoyl)piperidin-4-yl]-1,3-thiazole-5-carboxamide] | 5.83 | 6.41 | 9.42 |
| CC(C)CC(=O)N1CCC(c2ncc(C(=O)NCc3ccn4ccnc4c3)s2)CC1 [Example 544, N-(imidazo[1,2-a]pyridin-7-ylmethyl)-2-[1-(3-methylbutanoyl)piperidin-4-yl]-1,3-thiazole-5-carboxamide] | 6.06 | 6.19 | 9.36 |
| O=C(NCc1ccn2ccnc2c1)c1cnc(C2CCN(C(=O)c3ccccc3)CC2)s1 [Example 545, 2-(1-benzoylpiperidin-4-yl)-N-(imidazo[1,2-a]pyridin-7-ylmethyl)-1,3-thiazole-5-carboxamide] | 6.96 | 7.54 | 9.39 |
| O=C(CC1CCCC1)Nc1ccc(C(=O)NCc2ccn3ncnc3c2)cc1 [Example 546, 4-[(cyclopentylacetyl)amino]-N-([1,2,4]triazolo[1,5-a]pyridin-7-ylmethyl)benzamide] | 6.63 | 5.61 | 7.63 |
| CC[C@H](C)C(=O)N1CC(c2ccc(C(=O)NCc3ccn4ccnc4c3)cc2)C1 [Example 547, N-(imidazo[1,2-a]pyridin-7-ylmethyl)-4-{1-[(2S)-2-methylbutanoyl]azetidin-3-yl}benzamide] | 6.30 | 7.59 | 9.37 |
| O=C(NCc1ccn2ccnc2c1)c1ccc(C2CN(C(=O)CC3CC3)C2)cc1 [Example 548, 4-[1-(cyclopropylacetyl)azetidin-3-yl]-N-(imidazo[1,2-a]pyridin-7-ylmethyl)benzamide] | 6.40 | 7.13 | 9.33 |
